Reference: patent publication US20240239846A1, “METHODS OF ANALYSING A SAMPLE” (THE UNIVERSITY OF ADELAIDE, priority 2021, published 2024)
Entries after “also recorded” stand apart in the source; their conditions may differ.

Experiments:
[1] = Neu5Ac/Neu5Gc glycan microarray analysis; format: binding; conditions: ZBiotech Neu5Gc/Neu5Ac N-Glycan Array, FIG. 1A
From the text: A Neu5Ac/Neu5Gc glycan microarray (as previously used in Wang et al, 2018, Biophys Biochem Res Commun 500:765-771; ZBiotech Neu5Gc/Neu5Ac N-Glycan Array) was utilised to determine the binding of SubBA12 to sialylated glycans with SubB2M used as a control. This glycan array comprises over 40 match pairs of glycans covalently linked to the array slide surface. Each pair of glycans is identical apart from the presence of either a Neu5Ac or Neu5Gc moiety.
Neu5Ac/Neu5Gc glycan array slides were purchased from Z-Biotech (Aurora, Colorado, USA, https://www.zbiotech.com/neu5gc-neu5ac-n-glycan-array.html). A 16-subarray slide array was used and glycan array analysis of SubB2M and SubBA12 was performed as per the manufacturer's protocols. Arrays were scanned using a Innocan 1100AL laser scanner and analysed using Mapix array analysis software.

[2] = SPR analysis of glycan binding (all tested glycans); conditions: lectin immobilized on CM5 chip; glycans up to a concentration of 20 μM; FIG. 1B
Method: SubBA12 was analysed for binding to a range of Neu5Ac, Neu5Gc and non-sialylated synthetic oligosaccharides using SPR.
For glycan analysis, SubB2M was immobilized through flow cells 2 and 3 and SubBA12 was immobilized through flow cell 4 (capture levels: 5000-6000 Response Units (RU)) onto a series S sensor chip CM5 (GE) using the NHS capture kit. Flow cell 1 was run as a blank immobilization. Glycans purchased from Chemily Glycoscience (Atlanta, GA) were analysed across a five-fold dilution series in PBS at a maximum concentration of 20 μM. Analysis was run using single cycle analysis and double reference subtraction on the Biacore S200 evaluation software.

[3] = Ser12>Ala12 mutation; described previously (Byres et al, 2008); cited from earlier work

SubBA12: mutant form of SubB (Ser12>Ala12) having the amino acid sequence of SEQ ID NO: 4; lacks or has substantially reduced sialic acid binding
binding to Neu5Ac-containing glycans on glycan array [1]: Essentially no binding; also recorded: little to no recognition
binding to Neu5Gc-containing glycans on glycan array [1]: Essentially no binding; also recorded: little to no recognition
binding (concentration dependent interaction) to any of the tested glycans by SPR [2]: No binding; also recorded: No concentration dependent interactions
binding to sialylated glycans [3]: cannot bind
